# Assay results from PubChem BioAssay AID1963979 (Molecular Pharmacology Branch, DTP, NCI, 2024).
# Values joined by “and” are separate entries in the source; they are usually repeats but may differ in a detail not shown here. Equal entries are not always repeated.
# System: 361931-004-R-J1-PDC multicell spheroid viability
# Test: Anticancer human tumor 361931-004-R-J1-PDC patient-derived colon adenocarcinoma cell line growth inhibition [PI3K]
# Conditions: for viability, T/C: stronger effect = lower value
# Procedure, shortened: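 Agents were dosed from a top concentration near clinical Cmax (otherwise 10 microM) in half-log decrements, alone or combined with PI3K inhibitors. The spheroids contain tumor cells plus endothelial (HUVEC) and MSC stroma; viability is measured.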
# [1] = curve of first compound, second compound 0.0316 µM
# [2] = curve of first compound, second compound 0.1 µM
# [3] = curve of first compound, second compound 0.316 µM
# [4] = curve of first compound, second compound 1 µM
# [5] = second compound 0.0316 µM, first compound 0.0316 µM
# [6] = second compound 0.0316 µM, first compound 0.1 µM
# [7] = second compound 0.0316 µM, first compound 0.316 µM
# [8] = second compound 0.0316 µM, first compound 1 µM
# [9] = second compound 0.0316 µM, first compound 3.16 µM
# [10] = second compound 0.0316 µM, first compound 10 µM
# [11] = second compound 0.1 µM, first compound 0.0316 µM
# [12] = second compound 0.1 µM, first compound 0.1 µM
# [13] = second compound 0.1 µM, first compound 0.316 µM
# [14] = second compound 0.1 µM, first compound 1 µM
# [15] = second compound 0.1 µM, first compound 3.16 µM
# [16] = second compound 0.1 µM, first compound 10 µM
# [17] = second compound 0.316 µM, first compound 0.0316 µM
# [18] = second compound 0.316 µM, first compound 0.1 µM
# [19] = second compound 0.316 µM, first compound 0.316 µM
# [20] = second compound 0.316 µM, first compound 1 µM
# [21] = second compound 0.316 µM, first compound 3.16 µM
# [22] = second compound 0.316 µM, first compound 10 µM
# [23] = second compound 1 µM, first compound 0.0316 µM
# [24] = second compound 1 µM, first compound 0.1 µM
# [25] = second compound 1 µM, first compound 0.316 µM
# [26] = second compound 1 µM, first compound 1 µM
# [27] = second compound 1 µM, first compound 3.16 µM
# [28] = second compound 1 µM, first compound 10 µM
# [29] = curve of first compound, second compound 3.16 µM
# [30] = curve of first compound, second compound 10 µM
# [31] = second compound 3.16 µM, first compound 0.0316 µM
# [32] = second compound 3.16 µM, first compound 0.1 µM
# [33] = second compound 3.16 µM, first compound 0.316 µM
# [34] = second compound 3.16 µM, first compound 1 µM
# [35] = second compound 10 µM, first compound 0.0316 µM
# [36] = second compound 10 µM, first compound 0.1 µM
# [37] = second compound 10 µM, first compound 0.316 µM
# [38] = second compound 10 µM, first compound 1 µM
# 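Note: spheroids exposed to agents for seven days before readout.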
smiles,measurement,setting,value
CC1(C)CCC(CN2CCN(c3ccc(C(=O)NS(=O)(=O)c4ccc(NCC5CCOCC5)c([N+](=O)[O-])c4)c(Oc4cnc5[nH]ccc5c4)c3)CC2)=C(c2ccc(Cl)cc2)C1 + CC(Nc1ccc2c(c1)OCCn1cc(N3C(=O)OCC3C(F)F)nc1-2)C(N)=O,IC50,"curve of first compound, second compound 0.00316 µM",4.2 µM
same,IC50,"curve of first compound, second compound 0.01 µM",4.29 µM
same,IC50,[1],4.05 µM
same,IC50,[2],3.93 µM
same,IC50,[3],3.36 µM
same,IC50,[4],3.32 µM
same,"viability, T/C","second compound 0.00316 µM, first compound 0.0316 µM",104%
same,"viability, T/C","second compound 0.00316 µM, first compound 0.1 µM",98.4%
same,"viability, T/C","second compound 0.00316 µM, first compound 0.316 µM",112%
same,"viability, T/C","second compound 0.00316 µM, first compound 1 µM",101%
same,"viability, T/C","second compound 0.00316 µM, first compound 3.16 µM",65.6%
same,"viability, T/C","second compound 0.00316 µM, first compound 10 µM",2.39%
same,"viability, T/C","second compound 0.01 µM, first compound 0.0316 µM",93.3%
same,"viability, T/C","second compound 0.01 µM, first compound 0.1 µM",99.7%
same,"viability, T/C","second compound 0.01 µM, first compound 0.316 µM",91.5%
same,"viability, T/C","second compound 0.01 µM, first compound 1 µM",103%
same,"viability, T/C","second compound 0.01 µM, first compound 3.16 µM",67%
same,"viability, T/C","second compound 0.01 µM, first compound 10 µM",2.81%
same,"viability, T/C",[5],99.1%
same,"viability, T/C",[6],109%
same,"viability, T/C",[7],92.1%
same,"viability, T/C",[8],101%
same,"viability, T/C",[9],63%
same,"viability, T/C",[10],2.11%
same,"viability, T/C",[11],99%
same,"viability, T/C",[12],99.8%
same,"viability, T/C",[13],95.9%
same,"viability, T/C",[14],85.3%
same,"viability, T/C",[15],61.9%
same,"viability, T/C",[16],1.48%
same,"viability, T/C",[17],86.7%
same,"viability, T/C",[18],84.7%
same,"viability, T/C",[19],87.8%
same,"viability, T/C",[20],84.3%
same,"viability, T/C",[21],52.7%
same,"viability, T/C",[22],1.87%
same,"viability, T/C",[23],78%
same,"viability, T/C",[24],80.7%
same,"viability, T/C",[25],75.8%
same,"viability, T/C",[26],71.2%
same,"viability, T/C",[27],52.4%
same,"viability, T/C",[28],1.28%
CCCS(=O)(=O)Nc1ccc(F)c(C(=O)c2c[nH]c3ncc(-c4ccc(Cl)cc4)cc23)c1F,"viability, T/C",compound 0.0316 µM,103% (2×) and 94% and 108%
same,"viability, T/C",compound 0.1 µM,103% and 101% (2×) and 98.4%
same,"viability, T/C",compound 0.316 µM,97.1% [middle of 4 runs]
same,"viability, T/C",compound 1 µM,92.3% [middle of 4 runs]
same,"viability, T/C",compound 3.16 µM,82% [middle of 4 runs]
same,"viability, T/C",compound 10 µM,8.31% [middle of 4 runs]
same,IC50,curve of compound,5.1 µM [middle of 4 runs]
CCN1CCN(Cc2ccc(Nc3ncc(F)c(-c4cc(F)c5nc(C)n(C(C)C)c5c4)n3)nc2)CC1 + Cc1nc(NC(=O)N2CCCC2C(N)=O)sc1-c1ccnc(C(C)(C)C(F)(F)F)c1,IC50,[1],> 1 µM
same,IC50,[2],> 1 µM
same,IC50,[3],> 1 µM
same,IC50,[4],0.605 µM
same,IC50,[29],0.111 µM
same,IC50,[30],0.0189 µM
same,"viability, T/C","second compound 0.0316 µM, first compound 0.00316 µM",91.8%
same,"viability, T/C","second compound 0.0316 µM, first compound 0.01 µM",99.3%
same,"viability, T/C",[5],99.5%
same,"viability, T/C",[6],93.8%
same,"viability, T/C",[7],79.7%
same,"viability, T/C",[8],82.1%
same,"viability, T/C","second compound 0.1 µM, first compound 0.00316 µM",99.6%
same,"viability, T/C","second compound 0.1 µM, first compound 0.01 µM",97.2%
same,"viability, T/C",[11],96.6%
same,"viability, T/C",[12],82.6%
same,"viability, T/C",[13],81.7%
same,"viability, T/C",[14],57.4%
same,"viability, T/C","second compound 0.316 µM, first compound 0.00316 µM",97.9%
same,"viability, T/C","second compound 0.316 µM, first compound 0.01 µM",90.2%
same,"viability, T/C",[17],83.8%
same,"viability, T/C",[18],72.6%
same,"viability, T/C",[19],69.5%
same,"viability, T/C",[20],56.4%
same,"viability, T/C","second compound 1 µM, first compound 0.00316 µM",95.2%
same,"viability, T/C","second compound 1 µM, first compound 0.01 µM",87.7%
same,"viability, T/C",[23],75.2%
same,"viability, T/C",[24],74.3%
same,"viability, T/C",[25],65.2%
same,"viability, T/C",[26],39.7%
same,"viability, T/C","second compound 3.16 µM, first compound 0.00316 µM",75.4%
same,"viability, T/C","second compound 3.16 µM, first compound 0.01 µM",67.2%
same,"viability, T/C",[31],54.9%
same,"viability, T/C",[32],51.9%
same,"viability, T/C",[33],46%
same,"viability, T/C",[34],37.3%
same,"viability, T/C","second compound 10 µM, first compound 0.00316 µM",65.9%
same,"viability, T/C","second compound 10 µM, first compound 0.01 µM",59%
same,"viability, T/C",[35],40.6%
same,"viability, T/C",[36],40.5%
same,"viability, T/C",[37],32.2%
same,"viability, T/C",[38],30.5%
CNC(=O)c1ccc(N2C(=S)N(c3ccc(C#N)c(C(F)(F)F)c3)C(=O)C2(C)C)cc1F + Cc1nc(NC(=O)N2CCCC2C(N)=O)sc1-c1ccnc(C(C)(C)C(F)(F)F)c1,IC50,[1],> 10 µM
same,IC50,[2],> 10 µM
same,IC50,[3],> 10 µM
same,IC50,[4],> 10 µM
same,IC50,[29],> 10 µM
same,IC50,[30],> 10 µM
same,"viability, T/C",[5],113%
same,"viability, T/C",[6],101%
same,"viability, T/C",[7],91%
same,"viability, T/C",[8],90.8%
same,"viability, T/C",[9],98%
same,"viability, T/C",[10],99.6%
same,"viability, T/C",[11],106%
same,"viability, T/C",[12],101%
same,"viability, T/C",[13],87.4%
same,"viability, T/C",[14],94.4%
same,"viability, T/C",[15],93.3%
same,"viability, T/C",[16],86.6%
same,"viability, T/C",[17],99.2%
same,"viability, T/C",[18],90.8%
same,"viability, T/C",[19],100%
same,"viability, T/C",[20],104%
same,"viability, T/C",[21],104%
same,"viability, T/C",[22],95.8%
same,"viability, T/C",[23],94.1%
same,"viability, T/C",[24],93.5%
same,"viability, T/C",[25],80%
same,"viability, T/C",[26],94.5%
same,"viability, T/C",[27],94.1%
same,"viability, T/C",[28],85.6%
same,"viability, T/C",[31],83.2%
same,"viability, T/C",[32],82.9%
same,"viability, T/C",[33],91.3%
same,"viability, T/C",[34],84.2%
same,"viability, T/C","second compound 3.16 µM, first compound 3.16 µM",98%
same,"viability, T/C","second compound 3.16 µM, first compound 10 µM",70.3%
same,"viability, T/C",[35],70.2%
same,"viability, T/C",[36],67.1%
same,"viability, T/C",[37],59.3%
same,"viability, T/C",[38],69.1%
same,"viability, T/C","second compound 10 µM, first compound 3.16 µM",76.1%
same,"viability, T/C","second compound 10 µM, first compound 10 µM",45.2%
